Results reported in patent US20170368082A1, “FORMULATIONS OF BRINCIDOFOVIR” (priority 2016, published 2017).
Read-outs that look alike come from different tables or passages of the source.

Assay: Phase 2 toxicokinetics of brincidofovir and cidofovir in plasma
Format: in vivo, Sprague-Dawley CD rats
Details: for Tmax: Sprague-Dawley CD, rat, plasma, iv, read-out: Median Tmax; for AUClast/Dose / Cmax/Dose / Tlast: brincidofovir in plasma, 1 mg/kg 2-hour IV infusion, Female rats
Protocol: Plasma samples (108) were collected 2 hours following the initiation of dosing on Day 1 and Day 7 (Group 1), or at 1, 2, 8, and 24 hours following the initiation of dosing on Day 1, and prior to administration and at 2, 8, and 24 hours following the initiation of dosing on Day 7 (Groups 2 and 3), and analyzed to determine the concentrations of brincidofovir and the metabolite, cidofovir), by LC/MS/MS.
Approximately 0.4 mL of whole blood was obtained via the tail vein from each animal at each time point. Animals were not fasted prior to blood collection. Blood was collected into tubes containing K2EDTA anticoagulant and placed on wet ice in an upright position, per facility SOP prior to processing. Plasma was separated by centrifugation (10 minutes at approximately 2000 g, at approximately 2-8° C.). Approximately 0.10 mL of plasma was transferred into a single cryotube appropriately labeled with study number, animal number, time point, date of sampling and sample type. Remaining plasma was transferred into a second cryotube and retained as a backup sample. Plasma frozen at approximately −80±10° C. within approximately 2 hours after collection of each blood sample until analysis. Animals were euthanized (CO2 inhalation) after the final blood collection.
In general, TK parameters were estimated using mean plasma concentrations of brincidofovir and cidofovir derived from the composite blood sampling design using Phoenix WinNonLin (V 6.3).
A composite blood sampling design was used such that each rat was sampled twice per sampling day. Blood was collected via tail vein from unanesthetized animals into tubes containing anticoagulant and placed on wet ice in an upright position. Animals were not fasted prior to blood collection. Plasma was separated by centrifugation (for 10 minutes at approximately 2000 g, at approximately 2-8° C.), and transferred into individually labeled cryotubes. All cryotubes containing the collected plasma samples were appropriately labeled as to study number, animal number, time point, date of sampling and sample type. All plasma samples were obtained and frozen at approximately −80° C. (±10° C.) within approximately 2 hours after collection of each blood sample until analysis.
Rat plasma bioanalysis was conducted by Pyxant Laboratories. Plasma samples were analyzed for concentrations of brincidofovir and cidofovir using a method based upon protein precipitation extraction followed by LC-MS/MS analysis; calibration ranges for brincidofovir and cidofovir were 1.00-1500 ng/mL and 5.00-750 ng/mL, respectively, (Pyxant study number 3025) for a 50 μL aliquot of rat plasma. Sample analysis for ISR was not performed as part of this non-GLP study.
For the generation of Mean Profiles, all sample concentrations that were below the limit of quantitation (BLQ) were set to 0.
All pharmacokinetic parameter estimates were completed using a Non-Compartmental Model (Model 200-202 for IV infusion administration). The AUClast and AUCinf were calculated using the linear up log down trapezoidal rule.

[1] = brincidofovir 1 mg/kg, Male, Day 1, 1 h
[2] = brincidofovir 1 mg/kg, Male, Day 1, 2 h
[3] = brincidofovir 1 mg/kg, Male, Day 7, 0 h
[4] = brincidofovir 1 mg/kg, Male, Day 7, 2 h
[5] = brincidofovir 15 mg/kg, Female, Day 1, 1 h
[6] = brincidofovir 15 mg/kg, Female, Day 1, 2 h
[7] = brincidofovir 15 mg/kg, Female, Day 1, 8 h
[8] = brincidofovir 15 mg/kg, Female, Day 1, 24 h
[9] = brincidofovir 15 mg/kg, Female, Day 7, 0 h
[10] = brincidofovir 15 mg/kg, Female, Day 7, 2 h
[11] = brincidofovir 15 mg/kg, Female, Day 7, 8 h
[12] = brincidofovir 15 mg/kg, Female, Day 7, 24 h
[13] = brincidofovir 15 mg/kg, Male, Day 1, 1 h
[14] = brincidofovir 15 mg/kg, Male, Day 1, 2 h
[15] = brincidofovir 15 mg/kg, Male, Day 1, 8 h
[16] = brincidofovir 15 mg/kg, Male, Day 7, 0 h
[17] = brincidofovir 15 mg/kg, Male, Day 7, 2 h

CCCCCCCCCCCCCCCCOCCCOP(=O)(O)CO[C@H](CO)Cn1ccc(N)nc1=O [Brincidofovir]
Difference in Cmax between female and male (1 or 15 mg/kg, Days 1 and 7): ≤ 54%
Tmax (1 mg/kg, single and twice weekly 1 mg/kg): 2 h
Tmax (15 mg/kg, single 15 mg/kg): 1 h
Tmax (15 mg/kg, twice weekly 15 mg/kg): 2 h
brincidofovir Mean Concentration (MC) (brincidofovir 1 mg/kg, Female, Day 7, 24 h): 0.00 ng/mL
brincidofovir Imputed Mean Concentration (IMC) [1]: 227 ng/mL
brincidofovir Mean Concentration (MC) [1]: 227 ng/mL
brincidofovir Imputed Mean Concentration (IMC) [2]: 235 ng/mL
brincidofovir Mean Concentration (MC) [2]: 235 ng/mL
brincidofovir Mean Concentration (MC) (brincidofovir 1 mg/kg, Male, Day 1, 8 h): 0.00 ng/mL
brincidofovir Mean Concentration (MC) (brincidofovir 1 mg/kg, Male, Day 1, 24 h): 0.00 ng/mL
brincidofovir Imputed Mean Concentration (IMC) [3]: 0.00 ng/mL
brincidofovir Mean Concentration (MC) [3]: 0.00 ng/mL
brincidofovir Imputed Mean Concentration (IMC) [4]: 208 ng/mL
brincidofovir Mean Concentration (MC) [4]: 208 ng/mL
brincidofovir Mean Concentration (MC) (brincidofovir 1 mg/kg, Male, Day 7, 8 h): 0.00 ng/mL
brincidofovir Mean Concentration (MC) (brincidofovir 1 mg/kg, Male, Day 7, 24 h): 0.00 ng/mL
brincidofovir Imputed Mean Concentration (IMC) [5]: 3470 ng/mL
brincidofovir Mean Concentration (MC) [5]: 3470 ng/mL
brincidofovir Imputed Mean Concentration (IMC) [6]: 2570 ng/mL
brincidofovir Mean Concentration (MC) [6]: 2570 ng/mL
brincidofovir Imputed Mean Concentration (IMC) [7]: 6.53 ng/mL
brincidofovir Mean Concentration (MC) [7]: 6.53 ng/mL
brincidofovir Imputed Mean Concentration (IMC) [8]: 2.02 ng/mL
brincidofovir Mean Concentration (MC) [8]: 2.02 ng/mL
brincidofovir Imputed Mean Concentration (IMC) [9]: 0.00 ng/mL
brincidofovir Mean Concentration (MC) [9]: 0.00 ng/mL
brincidofovir Imputed Mean Concentration (IMC) [10]: 1660 ng/mL
brincidofovir Mean Concentration (MC) [10]: 1660 ng/mL
brincidofovir Imputed Mean Concentration (IMC) [11]: 5.45 ng/mL
brincidofovir Mean Concentration (MC) [11]: 5.45 ng/mL
brincidofovir Imputed Mean Concentration (IMC) [12]: 0.790 ng/mL
brincidofovir Mean Concentration (MC) [12]: 0.790 ng/mL
brincidofovir Imputed Mean Concentration (IMC) [13]: 4370 ng/mL
brincidofovir Mean Concentration (MC) [13]: 4370 ng/mL
brincidofovir Imputed Mean Concentration (IMC) [14]: 2840 ng/mL
brincidofovir Mean Concentration (MC) [14]: 2840 ng/mL
brincidofovir Imputed Mean Concentration (IMC) [15]: 9.59 ng/mL
brincidofovir Mean Concentration (MC) [15]: 9.59 ng/mL
brincidofovir Imputed Mean Concentration (IMC) [16]: 0.00 ng/mL
brincidofovir Mean Concentration (MC) [16]: 0.00 ng/mL
brincidofovir Imputed Mean Concentration (IMC) [17]: 1910 ng/mL
brincidofovir Mean Concentration (MC) [17]: 1910 ng/mL
brincidofovir Mean Concentration (MC) (brincidofovir 15 mg/kg, Male, Day 7, 8 h): 8.72 ng/mL
AUClast/Dose (Day 1): 459 (h*ng/mL)/(mg/kg)
Cmax/Dose (Day 1): 191 (ng/mL)/(mg/kg)
Tlast (Day 1): 8 h
AUClast/Dose (Day 7): 244 (h*ng/mL)/(mg/kg)
Cmax/Dose (Day 7): 95.4 (ng/mL)/(mg/kg)
Tlast (Day 7): 8 h
